From patent US9630914B2, “Multitarget FAAH and COX inhibitors and therapeutical uses thereof” (FONDAZIONE ISTITUTO ITALIANO DI TECNOLOGIA, priority 2012, dated 2017)
Read-outs that look alike come from different tables or passages of the source.

Tests used:
Format in all cases: biochemical
[1] = target: ovine COX-1 (Ovis aries (Sheep), UniProt P05979); experiment: In vitro COX assay (COX Inhibitor Screening Assay Kit), COX-1; settings: 5 μM arachidonic acid
Experimental: (§1) COX activity was measured using a commercial kit (COX Inhibitor Screening Assay Kit—Cayman Chemical N. 560131) which includes both ovine COX-1 and human recombinant COX-2 enzymes. Inhibitors were pre-incubated with either ovine COX-1 or human COX-2 in order to screen isozyme-specific inhibition. Differently than described in the kit protocol, the reaction was carried out in the presence of 5 μM arachidonic acid while for the blank sample (no activity) the two enzymes were inactivated for 40 minutes at 100° C. It was then measured the amount of PGF2α produced by reduction with SnCl2 of COX-derived PGH2, via enzyme immunoassay (EIA) using a PG-specific antibody and competing with a PG-acetylcholinesterase conjugate.
(§2) Absorbance was measured at 412 nm with a Tecan Infinite M200 plate reader and data were processed according to manufacturer's instructions.
(§3) The median inhibitory concentrations (IC50) were determined by non-linear regression analysis of the Log [concentration]/response curves generated with mean replicate values using a four parameter Hill equation curve fitting with GraphPad Prism 5 (GraphPad Software Inc., CA-USA).

[2] = target: human FAAH-1 (Homo sapiens (Human), UniProt O00519); experiment: In vitro human FAAH fluorescent assay; settings: human FAAH-1 membrane preparation from HEK-293; means of ≧3 experiments
Experimental: In Vitro Human FAAH Fluorescent Assay
Human recombinant FAAH was obtained from a HEK-293 FAAH-1 overexpressing stable cell line. Cells were grown in DMEM medium containing 10% FBS, 1% pen/strep, 1% glutamine and 500 μg/mL G418. To obtain membrane preparation cells were scraped off with cold phosphate-buffered saline (PBS) and collected by centrifugation (500×g, 10 minutes, 4° C.); the cell pellet was re-suspended in 20 mM Tris-HCl pH 7.4, 0.32 M sucrose, disrupted by sonication (10 pulses, 5 times) and centrifuged (800×g, 15 minutes, 4° C.); the collected supernatant was centrifuged at 105,000×g for 1 h at 4° C. and the pellet was re-suspended in PBS.
The background (no activity) samples were prepared using 180 μL of assay buffer without human FAAH-1 and 10 μL of DMSO. The reaction was then started by the addition of 10 μL of substrate (AMC arachidonyl amide, N. 10005098, Cayman Chemical) dissolved in ethanol and used at a final concentration of 2 μM. The reaction was carried out for 30 minutes at 37° C. and fluorescence was measured with a Tecan Infinite M200 nanoquant plate reader (excitation wavelength 350 nm/emission wavelength 460 nm).
as §3

[3] = target: human recombinant COX-2 (Homo sapiens (Human), UniProt P35354); experiment: In vitro COX assay (COX Inhibitor Screening Assay Kit), COX-2
Experimental: as §1, §2, §3

[4] = target: Rat FAAH (Rattus norvegicus (Rat), UniProt P97612); experiment: In vitro rat FAAH radiometric assay; settings: rat brain homogenate; means of ≧3 experiments in duplicate
Experimental: In Vitro Rat FAAH Radiometric Assay
Rat FAAH was prepared from male Sprague Dawley rat brains, homogenized in a potter in 20 mM of Tris HCl pH 7.4, 0.32 M sucrose.
After 10 minutes of pre-incubation with test compounds, the reaction was started by adding of 50 μL of substrate and incubating for 30 min at 37° C. The substrate was prepared in assay buffer in order to achieve the final concentration of 1 μM arachidonoyl ethanolamide (Cayman Chemical N. 90050) and 0.6 nM anandamide [ethanolamine-1-^3H](American Radiolabeled Chemicals Inc., ART. 0626, conc. 1 mCi/mL, S.A. 60 Ci/mmol). The reaction was stopped by adding cold 1:1 CHCl3/MeOH. After 10 minutes of centrifugation (845×g at 4° C.) 600 μL of aqueous phase were transferred into scintillation vials previously filled with 3 mL of scintillation fluid (Ultima Gold™, Perkin Elmer Inc., Cat. 6013329). Radioactivity was measured by liquid scintillation counting (MicroBeta2 LumiJET Perkin Elmer Inc.).
as §3

[5] = 5 μM arachidonic acid, read-out: human COX-2 IC50

Rat FAAH, sequence (P97612 whole entry): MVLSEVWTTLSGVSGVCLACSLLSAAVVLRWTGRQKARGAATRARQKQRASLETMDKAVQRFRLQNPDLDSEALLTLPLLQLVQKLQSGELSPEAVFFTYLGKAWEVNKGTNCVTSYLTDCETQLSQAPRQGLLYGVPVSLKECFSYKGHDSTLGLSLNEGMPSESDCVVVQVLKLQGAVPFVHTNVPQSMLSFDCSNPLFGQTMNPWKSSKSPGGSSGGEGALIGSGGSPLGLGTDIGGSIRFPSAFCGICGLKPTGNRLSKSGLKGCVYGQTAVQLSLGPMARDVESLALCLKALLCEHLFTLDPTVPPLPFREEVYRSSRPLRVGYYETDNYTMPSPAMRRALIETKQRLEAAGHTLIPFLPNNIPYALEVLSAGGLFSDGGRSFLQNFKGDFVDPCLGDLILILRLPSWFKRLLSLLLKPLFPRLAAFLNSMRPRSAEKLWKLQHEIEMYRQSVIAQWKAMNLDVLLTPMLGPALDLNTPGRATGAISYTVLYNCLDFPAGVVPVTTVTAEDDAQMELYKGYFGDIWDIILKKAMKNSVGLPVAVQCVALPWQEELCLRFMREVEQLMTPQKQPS
human recombinant COX-2, sequence (P35354 18-604): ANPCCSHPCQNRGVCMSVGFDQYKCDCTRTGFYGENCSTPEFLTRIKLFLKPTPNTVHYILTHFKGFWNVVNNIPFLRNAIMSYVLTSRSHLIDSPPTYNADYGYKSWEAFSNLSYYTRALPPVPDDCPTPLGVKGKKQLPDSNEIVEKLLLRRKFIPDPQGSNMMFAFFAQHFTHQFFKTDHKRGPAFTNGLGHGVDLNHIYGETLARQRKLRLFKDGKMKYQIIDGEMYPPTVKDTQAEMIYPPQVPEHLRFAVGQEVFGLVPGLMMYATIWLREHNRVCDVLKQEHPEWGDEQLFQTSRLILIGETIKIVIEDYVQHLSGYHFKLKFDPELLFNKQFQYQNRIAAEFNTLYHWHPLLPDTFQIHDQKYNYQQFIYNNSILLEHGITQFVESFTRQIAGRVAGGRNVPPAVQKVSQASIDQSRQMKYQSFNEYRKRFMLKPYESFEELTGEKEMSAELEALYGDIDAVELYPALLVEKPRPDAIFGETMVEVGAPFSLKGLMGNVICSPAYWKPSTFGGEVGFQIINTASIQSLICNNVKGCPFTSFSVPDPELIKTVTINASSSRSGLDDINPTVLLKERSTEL
human FAAH-1, sequence (O00519 whole entry): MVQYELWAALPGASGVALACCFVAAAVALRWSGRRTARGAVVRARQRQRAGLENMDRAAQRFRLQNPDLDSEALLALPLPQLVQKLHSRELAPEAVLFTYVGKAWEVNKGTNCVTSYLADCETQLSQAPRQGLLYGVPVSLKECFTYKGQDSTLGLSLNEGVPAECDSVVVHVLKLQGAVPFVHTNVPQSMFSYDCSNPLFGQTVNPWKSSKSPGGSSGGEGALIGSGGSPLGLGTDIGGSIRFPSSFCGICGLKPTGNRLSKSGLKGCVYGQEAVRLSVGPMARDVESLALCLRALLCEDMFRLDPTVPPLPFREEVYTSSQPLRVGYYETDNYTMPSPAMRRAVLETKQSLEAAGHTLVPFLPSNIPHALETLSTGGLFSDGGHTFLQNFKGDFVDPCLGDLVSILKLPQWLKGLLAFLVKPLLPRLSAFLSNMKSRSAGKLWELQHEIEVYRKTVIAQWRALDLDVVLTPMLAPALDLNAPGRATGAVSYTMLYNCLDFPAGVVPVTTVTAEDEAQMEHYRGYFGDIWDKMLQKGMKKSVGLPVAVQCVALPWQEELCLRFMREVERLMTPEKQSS
ovine COX-1, sequence (P05979 25-600): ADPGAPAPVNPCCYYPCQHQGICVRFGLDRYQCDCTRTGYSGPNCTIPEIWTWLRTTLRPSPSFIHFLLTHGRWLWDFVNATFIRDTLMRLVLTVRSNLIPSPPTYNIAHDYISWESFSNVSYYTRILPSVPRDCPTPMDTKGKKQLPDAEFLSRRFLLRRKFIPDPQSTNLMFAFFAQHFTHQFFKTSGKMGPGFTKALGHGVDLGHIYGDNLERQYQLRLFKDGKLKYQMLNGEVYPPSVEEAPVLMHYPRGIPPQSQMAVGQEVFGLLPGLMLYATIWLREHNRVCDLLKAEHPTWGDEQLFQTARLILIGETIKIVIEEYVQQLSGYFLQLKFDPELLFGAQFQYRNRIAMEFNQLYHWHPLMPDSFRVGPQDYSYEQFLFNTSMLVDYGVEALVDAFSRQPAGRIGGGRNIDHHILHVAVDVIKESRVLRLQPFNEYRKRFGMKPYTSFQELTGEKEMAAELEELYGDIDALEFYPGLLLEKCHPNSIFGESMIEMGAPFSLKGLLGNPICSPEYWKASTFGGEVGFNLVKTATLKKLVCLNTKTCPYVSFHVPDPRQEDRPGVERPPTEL

CCCCCCNC(=O)Oc1cccc(-c2ccc(C(C)C(=O)O)cc2F)c1 (single isomer, unassigned; (+)) [Example 20, (+)-2-[3-fluoro-4-[3-(hexylcarbamoyloxy)phenyl]phenyl]propanoic acid]
IC50 [1]: 0.01 nM

CCCCCCNC(=O)Oc1cccc(-c2ccc(C(C)C(=O)O)cc2F)c1 (single isomer, unassigned; (-)) [Example 19, (−)-2-[3-fluoro-4-[3-(hexylcarbamoyloxy)phenyl]phenyl]propanoic acid]
IC50 [1]: 13000 nM

CC(C(=O)O)c1ccc(-c2cccc(OC(=O)NC3CCCCC3)c2)c(F)c1 (stereo not shown) [Example 1, 2-[4-[3-(cyclohexylcarbamoyloxy)phenyl]-3-fluoro-phenyl]propanoic acid]
IC50 [2]: 1800 nM | IC50 [1]: 7900 nM | IC50 [3]: > 30000 nM | IC50 [4]: 8200 nM

CC(C(=O)O)c1ccc(-c2cccc(OC(=O)NC3CCCC3)c2)c(F)c1 (stereo not shown) [Example 2, 2-[4-[3-(cyclopentylcarbamoyloxy)phenyl]-3-fluoro-phenyl]propanoic acid]
IC50 [2]: 1800 nM | IC50 [1]: 4400 nM | IC50 [3]: > 30000 nM | IC50 [4]: 4800 nM

CC(C)CNC(=O)Oc1cccc(-c2ccc(C(C)C(=O)O)cc2F)c1 (stereo not shown) [Example 3, 2-[3-fluoro-4-[3-(isobutylcarbamoyloxy)phenyl]phenyl]propanoic acid]
IC50 [2]: 1600 nM | IC50 [1]: 8200 nM | IC50 [3]: > 30000 nM | IC50 [4]: 5600 nM

CC(C(=O)O)c1ccc(-c2cccc(OC(=O)NCC3CCCCC3)c2)c(F)c1 (stereo not shown) [Example 4, 2-[4-[3-(cyclohexylmethylcarbamoyloxy)phenyl]-3-fluoro-phenyl]propanoic acid]
IC50 [2]: 280 nM | IC50 [1]: 600 nM | IC50 [3]: > 30000 nM | IC50 [4]: 360 nM

CC(C(=O)O)c1ccc(-c2cccc(OC(=O)NCCC3CCCCC3)c2)c(F)c1 (stereo not shown) [Example 5, 2-[4-[3-(2-cyclohexylethylcarbamoyloxyl)phenyl]-3-fluoro-phenyl]propanoic acid]
IC50 [2]: 9 nM | IC50 [1]: 150 nM | IC50 [3, 5]: 11000 nM | IC50 [4]: 18 nM

CC(C(=O)O)c1ccc(-c2cccc(OC(=O)NCc3ccccc3)c2)c(F)c1 (stereo not shown) [Example 6, 2-[4-[3-(benzylcarbamoyloxy)phenyl]-3-fluoro-phenyl]propanoicacid]
IC50 [2]: 7200 nM | IC50 [1]: 1300 nM | IC50 [3]: > 30000 nM | IC50 [4]: 4200 nM

CC(C(=O)O)c1ccc(-c2cccc(OC(=O)NCCc3ccccc3)c2)c(F)c1 (stereo not shown) [Example 7, 2-[3-fluoro-4-[3-(phenethylcarbamoyloxy)phenyl]phenyl]propanoic acid]
IC50 [2]: 70 nM | IC50 [1]: 6300 nM | IC50 [3]: > 30000 nM | IC50 [4]: 170 nM

CC(C(=O)O)c1ccc(-c2cccc(OC(=O)NCCCc3ccccc3)c2)c(F)c1 (stereo not shown) [Example 8, 2-[3-fluoro-4-[3-(3-phenylpropylcarbamoyloxyl)phenyl]phenyl]propanoic acid]
IC50 [2]: 22 nM | IC50 [1]: 580 nM | IC50 [3, 5]: 6200 nM | IC50 [4]: 90 nM

CC(C(=O)O)c1ccc(-c2cccc(OC(=O)NCCCCc3ccccc3)c2)c(F)c1 (stereo not shown) [Example 9, 2-[3-fluoro-4-[3-(4-phenylbutylcarbamoyloxyl)phenyl]phenyl]propanoic acid]
IC50 [2]: 13 nM | IC50 [1]: 3700 nM | IC50 [3]: > 30000 nM | IC50 [4]: 27 nM

CCCCNC(=O)Oc1cccc(-c2ccc(C(C)C(=O)O)cc2F)c1 (stereo not shown) [Example 10, 2-[4-[3-(butylcarbamoyloxy)phenyl]-3-fluoro-phenyl]propanoic acid]
IC50 [2]: 1500 nM | IC50 [1]: 260 nM | IC50 [3]: > 30000 nM | IC50 [4]: 7000 nM

CCCCCNC(=O)Oc1cccc(-c2ccc(C(C)C(=O)O)cc2F)c1 (stereo not shown) [Example 11, 2-[3-fluoro-4-[3-(pentylcarbamoyloxy)phenyl]phenyl]propanoic acid]
IC50 [2]: 92 nM | IC50 [1]: 20 nM | IC50 [3, 5]: 160 nM | IC50 [4]: 570 nM

CCCCCCCNC(=O)Oc1cccc(-c2ccc(C(C)C(=O)O)cc2F)c1 (stereo not shown) [Example 13, 2-[3-fluoro-4-[3-(heptylcarbamoyloxy)phenyl]phenyl]propanoic acid]
IC50 [2]: 6 nM | IC50 [1]: 370 nM | IC50 [3, 5]: 320 nM | IC50 [4]: 11 nM

CCCCCCCCNC(=O)Oc1cccc(-c2ccc(C(C)C(=O)O)cc2F)c1 (stereo not shown) [Example 14, 2-[3-fluoro-4-[3-(octylcarbamoyloxy)phenyl]phenyl]propanoic acid]
IC50 [2]: 4 nM | IC50 [1]: 990 nM | IC50 [3, 5]: 29000 nM | IC50 [4]: 2.6 nM

CCCCCCNC(=O)Oc1cccc(-c2ccc(C(C)CO)cc2F)c1 (stereo not shown) [Example 15, [3-[2-fluoro-4-(2-hydroxy-1-methyl-ethyl)phenyl]phenyl]N-hexylcarbamate]
IC50 [2]: 9.1 nM | IC50 [1]: 1100 nM | IC50 [3]: > 30000 nM | IC50 [4]: 3.3 nM

CCCCCCNC(=O)Oc1cccc(-c2ccc(CC(=O)O)cc2F)c1 [Example 16, 2-[3-fluoro-4-[3-(hexylcarbamoyloxy)phenyl]phenyl]acetic acid]
IC50 [2]: 16 nM | IC50 [1]: 2100 nM | IC50 [3, 5]: 240 nM | IC50 [4]: 63 nM

CCCCCCNC(=O)Oc1ccccc1-c1ccc(C(C)C(=O)O)cc1F (stereo not shown) [Example 17, 2-[3-fluoro-4-[2-(hexylcarbamoyloxy)phenyl]phenyl]propanoic acid]
IC50 [2]: 740 nM | IC50 [1]: 720 nM | IC50 [3]: > 30000 nM | IC50 [4]: 2200 nM

CCCCCCOC(=O)Nc1cccc(-c2ccc(C(C)C(=O)O)cc2F)c1 (stereo not shown) [Example 18, 2-[3-fluoro-4-[3-(hexoxycarbonylamino)phenyl]phenyl]propanoic acid]
IC50 [2]: 21000 nM | IC50 [1]: 30 nM | IC50 [3, 5]: 170 nM | IC50 [4]: 15000 nM
